Columns and labels:
A549 cells [1] = assay: MTT antiproliferative assay, A549; assay type: cell-based, human; settings: for IC50: Homo sapiens, MTT, A549 (lung), mean ± SD of three experiments; for times more active than doxorubicin: A549, ratio of IC50 values
Excerpt: (§1) adenocarcinoma) cell lines.
(§2) supplied to that same media.
(§3) carbon dioxide. […] The positive
(§4) (FluoStar Omega (BMG Labtec, Ortenberg, Germany).

SKOV3 cells [2] = assay: MTT antiproliferative assay, SKOV3; assay type: cell-based, human; settings: for IC50: Homo sapiens, SK-OV-3, MTT, SKOV3 (ovarian), mean ± SD of three experiments; for fold better activity than doxorubicin: SKOV3, ratio of IC50 values
Excerpt: as §1, §2, §3, §4

MDA-MB-231 cells [3] = assay: MTT antiproliferative assay, MDA-MB-231; settings: for IC50: read-out: IC50 (μM) MDA-MB231, MTT, MDA-MB-231 (breast), mean ± SD of three experiments; for fold increase in cytotoxicity versus doxorubicin: MDA-MB-231, ratio of IC50 values
Experimental: Doxorubicin was used as a standard anticancer drug.
The cytotoxicity was assessed using the MTT method, according to our previously reported work [32]. The cell lines were purchased from American Type Culture Collection (ATCC).
FBS (10%) and 100 units/mL PS (penicillin/streptomycin) were
supplied to that same media. The cells incubated at 37 °C in a humidified environment with 5%

EGFR kinase = EGFR kinase (Homo sapiens, UniProt P00533); assay: In vitro EGFR inhibitory activity; assay type: biochemical
EGFR kinase, sequence (P00533 25-1210): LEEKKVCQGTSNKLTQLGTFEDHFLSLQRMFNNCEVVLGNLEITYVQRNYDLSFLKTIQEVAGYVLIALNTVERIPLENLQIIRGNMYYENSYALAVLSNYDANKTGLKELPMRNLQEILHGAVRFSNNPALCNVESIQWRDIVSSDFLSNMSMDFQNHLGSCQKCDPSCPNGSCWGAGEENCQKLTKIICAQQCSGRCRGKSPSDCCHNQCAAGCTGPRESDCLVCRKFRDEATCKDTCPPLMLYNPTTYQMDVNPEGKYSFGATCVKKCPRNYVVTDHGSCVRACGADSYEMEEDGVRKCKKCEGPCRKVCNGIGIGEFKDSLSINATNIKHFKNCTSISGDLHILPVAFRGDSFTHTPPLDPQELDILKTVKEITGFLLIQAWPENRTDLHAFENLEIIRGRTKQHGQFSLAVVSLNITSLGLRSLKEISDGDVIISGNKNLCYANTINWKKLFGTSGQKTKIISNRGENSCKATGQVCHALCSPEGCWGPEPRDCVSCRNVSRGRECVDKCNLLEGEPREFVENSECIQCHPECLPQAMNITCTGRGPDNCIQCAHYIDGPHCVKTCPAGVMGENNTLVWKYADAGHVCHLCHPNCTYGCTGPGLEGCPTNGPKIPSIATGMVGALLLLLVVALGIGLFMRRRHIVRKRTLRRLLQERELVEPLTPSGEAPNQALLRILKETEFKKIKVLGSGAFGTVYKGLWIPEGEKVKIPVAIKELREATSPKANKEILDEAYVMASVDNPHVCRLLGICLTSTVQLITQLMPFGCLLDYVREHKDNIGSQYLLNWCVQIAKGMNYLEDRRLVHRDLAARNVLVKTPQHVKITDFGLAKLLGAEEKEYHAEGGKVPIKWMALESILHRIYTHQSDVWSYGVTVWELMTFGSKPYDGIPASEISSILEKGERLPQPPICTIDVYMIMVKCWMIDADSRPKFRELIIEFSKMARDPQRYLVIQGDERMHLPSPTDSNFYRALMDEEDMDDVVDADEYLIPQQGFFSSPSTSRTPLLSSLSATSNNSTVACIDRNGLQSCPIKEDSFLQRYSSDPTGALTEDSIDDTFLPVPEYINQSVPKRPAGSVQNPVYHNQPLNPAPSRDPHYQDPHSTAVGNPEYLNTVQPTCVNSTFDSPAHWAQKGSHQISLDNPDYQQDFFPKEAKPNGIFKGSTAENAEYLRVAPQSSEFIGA
Experimental: EGFR inhibitory activity was assayed according to the reported method.

A549 cells [4] = assay: Cell cycle distribution, propidium iodide flow cytometry, A549; assay type: cell-based, human; settings: for cell cycle arrest phase: A549; for cell distribution in G2 phase / cell distribution in G1 phase / cell distribution in S phase: A549, treated at IC50 for 48 h; for cell distribution in G2 phase: control 29.13 ± 2.31%; for cell distribution in G1 phase: control 32.88 ± 2.04%; for cell distribution in S phase: control 38.48 ± 3.71%
Experimental: (§5) The most promising compounds (10 and 13) were explored for cell cycle distribution to determine the intracellular mode of action of these compounds. […] In the present study, compounds 10 and 13 arrest different cell cycle phases in A549, MDA-MB 231, and SKOV3 cancer cells. […] However, compound 10 arrests the G2/S phase in both MDA-MB 231 and SKOV3, while it arrests the G1/G2 phases in lung A549 carcinoma.
(§6) The analysis was performed according to our previously published work.
as §1, §2, §3, §4
(§7) delivered to cancer cells for 48 hours. A549, MDA,MB 231 and SKOV3 cells were then
(§8) Technology (CST) and incubated for 15 minutes. Fluorescence activated cell sorting analysis
(§9) of cell cycle phases for each sample [37].

MDA-MB-231 cells [5] = assay: Cell cycle distribution, propidium iodide flow cytometry, MDA-MB-231; assay type: cell-based, human; settings: for cell cycle arrest phase: MDA-MB-231; for cell distribution in G1 phase / cell distribution in S phase / cell distribution in G2 phase: MDA-MB-231, treated at IC50 for 48 h; for cell distribution in G1 phase: control 28.51 ± 2.09%; for cell distribution in S phase: control 35.51 ± 2.10%; for cell distribution in G2 phase: control 35.96 ± 1.97%
Experimental: as §5, §6, §1, §2, §3, §4, §7, §8, §9

SKOV3 cells [6] = assay: Cell cycle distribution, propidium iodide flow cytometry, SKOV3; assay type: cell-based, human; settings: for cell cycle arrest phase: SKOV3; for cell distribution in G1 phase / cell distribution in G2 phase / cell distribution in S phase: SKOV3, treated at IC50 for 48 h; for cell distribution in G1 phase: control 31.03 ± 1.86%; for cell distribution in G2 phase: control 34.23 ± 1.38%; for cell distribution in S phase: control 34.72 ± 1.80%
Experimental: as §5, §6, §1, §2, §3, §4, §7, §8, §9

A549 cells [7] = assay: Apoptosis, annexin V-FITC/PI flow cytometry, A549; assay type: cell-based, human; settings: for early apoptosis: A549; for late apoptosis / necrosis: A549, result in words
Experimental: (§10) The apoptosis studies regarding compounds 10 and 13 using annexin V-FITC/PI staining was also examined by flow cytometry.
as §1, §2, §3, §4, §7, §8, §9

MDA-MB-231 cells [8] = assay: Apoptosis, annexin V-FITC/PI flow cytometry, MDA-MB-231; assay type: cell-based, human; settings: for early apoptosis / late apoptosis: MDA-MB-231
Experimental: as §10, §1, §2, §3, §4, §7, §8, §9

SKOV3 cells [9] = assay: Apoptosis, annexin V-FITC/PI flow cytometry, SKOV3; assay type: cell-based, human
Experimental: as §10, §1, §2, §3, §4, §7, §8, §9

[10] = test system: non-small cell lung cancer (NSCLC); settings: cited from earlier work
hepatocellular carcinoma = settings: cited from earlier work
esophageal cancer = settings: cited from earlier work

Fc1ccc(-n2cc(CSc3nnc(Cn4c(-c5ccc(Cl)cc5Cl)nc5ccccc54)o3)nn2)cc1 [Compound 8, 2-{[2-(2,4-Dichlorophenyl)-1H-benzo[d]imidazol-1-yl]methyl}-5-({[1-(4-Fluorophenyl)-1H-1,2,3-triazol-4-yl]methyl}thio)-1,3,4-oxadiazole]
IC50 (A549 cells [1]): 26.7 ± 1.26 µM | IC50 (SKOV3 cells [2]): 17.7 ± 0.68 µM | melting point: 110 to 112 °C | IC50 (MDA-MB-231 cells [3]): 15.5 ± 1.64 µM

Clc1ccc(-c2nc3ccccc3n2Cc2nnc(SCc3cn(-c4cccc(Br)c4)nn3)o2)c(Cl)c1 [Compound 9, 2-({[1-(3-Bromophenyl)-1H-1,2,3-triazol-4-yl]methyl}thio)-5-{[2-(2,4-Dichlorophenyl)-1H-benzo[d]imidazol-1-yl]methyl}-1,3,4-oxadiazole]
IC50 (A549 cells [1]): 17.4 ± 0.54 µM | IC50 (SKOV3 cells [2]): 13.6 ± 0.71 µM | IC50 (EGFR kinase): 0.95 ± 0.023 µM | melting point: 180 to 182 °C | IC50 (MDA-MB-231 cells [3]): 10.9 ± 0.58 µM

Oc1ccccc1-n1cc(CSc2nnc(Cn3c(-c4ccc(Cl)cc4Cl)nc4ccccc43)o2)nn1 [Compound 10, 2-(4-{[(5-{[2-(2,4-Dichlorophenyl)-1H-benzo[d]imidazol-1-yl]methyl}-1,3,4-oxadiazol-2-yl)thio]methyl}-1H-1,2,3-triazol-1-yl)phenol]
times more active than doxorubicin (A549 cells [1]): 1.76 times | IC50 (A549 cells [1]): 3.31 ± 0.14 µM | IC50 (SKOV3 cells [2]): 6.98 ± 0.28 µM | fold better activity than doxorubicin (SKOV3 cells [2]): 1.23 fold | IC50 (EGFR kinase): 0.33 ± 0.051 µM | cell cycle arrest phase (A549 cells [4]): G1 and G2 phases | cell distribution in G2 phase (A549 cells [4]): 33.01 ± 2.28% | cell distribution in G1 phase (A549 cells [4]): 34.66 ± 2.80% | cell distribution in S phase (A549 cells [4]): 32.32 ± 1.51% | cell cycle arrest phase (MDA-MB-231 cells [5]): S and G2 phases | cell distribution in G1 phase (MDA-MB-231 cells [5]): 17.58 ± 1.45% | cell distribution in S phase (MDA-MB-231 cells [5]): 37.82 ± 2.57% | cell distribution in G2 phase (MDA-MB-231 cells [5]): 44.58 ± 3.03% | cell cycle arrest phase (SKOV3 cells [6]): G2/S phase | cell distribution in G1 phase (SKOV3 cells [6]): 16.15 ± 2.11% | cell distribution in G2 phase (SKOV3 cells [6]): 48.73± 1.89% | cell distribution in S phase (SKOV3 cells [6]): 35.11 ± 1.21% | early apoptosis (A549 cells [7]): 55.1% | late apoptosis (A549 cells [7]): no late apoptosis | necrosis (A549 cells [7]): no late apoptosis or necrosis | early apoptosis (MDA-MB-231 cells [8]): 69.7% | late apoptosis (MDA-MB-231 cells [8]): 3.2% | necrosis (MDA-MB-231 cells [8]; MDA-MB-231, result in words): without any necrosis | early apoptosis (SKOV3 cells [9]): 58.5% | fold increase in cytotoxicity versus doxorubicin (MDA-MB-231 cells [3]): 4.0 fold | IC50 (MDA-MB-231 cells [3]): 1.18 ± 0.68 µM

Cc1ccccc1-n1cc(CSc2nnc(Cn3c(-c4ccc(Cl)cc4Cl)nc4ccccc43)o2)nn1 [Compound 11, 2-{[2-(2,4-Dichlorophenyl)-1H-benzo[d]imidazol-1-yl]methyl}-5-({[1-(o-tolyl)-1H-1,2,3-triazol-4-yl]methyl}thio)-1,3,4-oxadiazole]
IC50 (A549 cells [1]): 43.8 ± 0.87 µM | IC50 (SKOV3 cells [2]): 25.7 ± 1.16 µM | melting point: 152 to 153 °C | IC50 (MDA-MB-231 cells [3]): 36.7 ± 0.75 µM

Clc1ccc(-c2nc3ccccc3n2Cc2nnc(SCc3cn(-c4ccc(Cl)cc4Cl)nn3)o2)c(Cl)c1 [Compound 12, 2-({[1-(2,4-Dichlorophenyl)-1H-1,2,3-triazol-4-yl]methyl}thio)-5-{[2-(2,4-Dichlorophenyl)-1H-benzo[d]imidazol-1-yl]methyl}-1,3,4-oxadiazole]
IC50 (A549 cells [1]): 37.1 ± 0.67 µM | IC50 (SKOV3 cells [2]): 33.6 ± 0.91 µM | melting point: 100 to 102 °C | IC50 (MDA-MB-231 cells [3]): 25.2 ± 1.82 µM

O=C(CSc1nnc(Cn2c(-c3ccc(Cl)cc3Cl)nc3ccccc32)o1)Nc1ccc(F)cc1 [Compound 13, 2-[(5-{[2-(2,4-Dichlorophenyl)-1H-benzo[d]imidazol-1-yl]methyl}-1,3,4-oxadiazol-2-yl)thio]-N-(4-Fluorophenyl)acetamide]
times more active than doxorubicin (A549 cells [1]): 1.1 times | IC50 (A549 cells [1]): 5.3 ± 0.44 µM | IC50 (SKOV3 cells [2]): 4.35 ± 0.38 µM | fold better activity than doxorubicin (SKOV3 cells [2]): 1.98 fold | IC50 (EGFR kinase): 0.38 ± 0.022 µM | cell cycle arrest phase (A549 cells [4]): G1 phase | cell distribution in G2 phase (A549 cells [4]): 24.64 ± 2.52% | cell distribution in G1 phase (A549 cells [4]): 36.34 ± 2.19% | cell distribution in S phase (A549 cells [4]): 38.99 ± 1.67% | cell cycle arrest phase (MDA-MB-231 cells [5]): G1 and S phases | cell distribution in G1 phase (MDA-MB-231 cells [5]): 34.88 ± 3.09% | cell distribution in S phase (MDA-MB-231 cells [5]): 41.14 ± 1.34% | cell distribution in G2 phase (MDA-MB-231 cells [5]): 23.97 ± 2.93% | cell cycle arrest phase (SKOV3 cells [6]): only the S phase | cell distribution in G1 phase (SKOV3 cells [6]): 25.38 ± 0.44% | cell distribution in G2 phase (SKOV3 cells [6]): 28.65 ± 1.73% | cell distribution in S phase (SKOV3 cells [6]): 45.93 ± 1.78% | early apoptosis (A549 cells [7]): 66.4% | late apoptosis (A549 cells [7]): no late apoptosis | necrosis (A549 cells [7]): no late apoptosis or necrosis | early apoptosis (MDA-MB-231 cells [8]): 80.24% | late apoptosis (MDA-MB-231 cells [8]): 5.4% | early apoptosis (SKOV3 cells [9]): 76.2% | late apoptosis (SKOV3 cells [9]): 21.7% | fold increase in cytotoxicity versus doxorubicin (MDA-MB-231 cells [3]): 1.64 fold | IC50 (MDA-MB-231 cells [3]): 2.9 ± 0.53 µM

O=C(CSc1nnc(Cn2c(-c3ccc(Cl)cc3Cl)nc3ccccc32)o1)Nc1ccc(F)cc1F [Compound 14, 2-[(5-{[2-(2,4-Dichlorophenyl)-1H-benzo[d]imidazol-1-yl]methyl}-1,3,4-oxadiazol-2-yl)thio]-N-(2,4-Difluorophenyl)acetamide]
IC50 (A549 cells [1]): 11.6 ± 0.29 µM | IC50 (SKOV3 cells [2]): 12.8 ± 0.53 µM | IC50 (EGFR kinase): 1.21 ± 0.047 µM | melting point: 212 to 214 °C | IC50 (MDA-MB-231 cells [3]): 20.9 ± 0.24 µM

O=C(CSc1nnc(Cn2c(-c3ccc(Cl)cc3Cl)nc3ccccc32)o1)Nc1ccc(Br)cc1 [Compound 15, N-(4-Bromophenyl)-2-[(5-{[2-(2,4-Dichlorophenyl)-1H-benzo[d]imidazol-1-yl]methyl}-1,3,4-oxadiazol-2-yl)thio]acetamide]
IC50 (A549 cells [1]): 20.6 ± 1.41 µM | IC50 (SKOV3 cells [2]): 13.7 ± 0.45 µM | melting point: 220 to 222 °C | IC50 (MDA-MB-231 cells [3]): 16.4 ± 0.44 µM

COc1ccc(NC(=O)CSc2nnc(Cn3c(-c4ccc(Cl)cc4Cl)nc4ccccc43)o2)cc1 [Compound 16, 2-[(5-{[2-(2,4-Dichlorophenyl)-1H-benzo[d]imidazol-1-yl]methyl}-1,3,4-oxadiazol-2-yl)thio]-N-(4-Methoxyphenyl)acetamide]
IC50 (A549 cells [1]): 7.83 ± 0.35 µM | IC50 (SKOV3 cells [2]): 8.13 ± 0.28 µM | IC50 (EGFR kinase): 1.09 ± 0.011 µM | melting point: 195 to 197 °C | IC50 (MDA-MB-231 cells [3]): 10.5 ± 0.88 µM

COC(=O)c1ccccc1NC(=O)CSc1nnc(Cn2c(-c3ccc(Cl)cc3Cl)nc3ccccc32)o1 [Compound 17, Methyl 2-{2-[(5-{[2-(2,4-Dichlorophenyl)-1H-benzo[d]imidazol-1-yl]methyl}-1,3,4-oxadiazol-2-yl)thio]acetamido}benzoate]
IC50 (A549 cells [1]): 18 ± 0.87 µM | IC50 (SKOV3 cells [2]): 12.2 ± 0.35 µM | IC50 (EGFR kinase): 1.54 ± 0.026 µM | melting point: 176 to 178 °C | IC50 (MDA-MB-231 cells [3]): 11.9 ± 0.91 µM

C#Cc1cccc(Nc2ncnc3cc(OCCOC)c(OCCOC)cc23)c1 [Erlotinib, erlotinib]
cell cycle arrest phase [10]: G0/G1 phase | cell cycle arrest phase (hepatocellular carcinoma): G1/S checkpoint | cell cycle arrest phase (esophageal cancer): G1/G0 phase

COc1cccc2c1C(=O)c1c(O)c3c(c(O)c1C2=O)C[C@@](O)(C(=O)CO)C[C@@H]3O[C@H]1C[C@H](N)[C@H](O)[C@H](C)O1 [doxorubicin, reference compound]
IC50 (A549 cells [1]): 5.85 ± 0.61 µM | IC50 (SKOV3 cells [2]): 8.65 ± 0.37 µM | IC50 (MDA-MB-231 cells [3]): 4.76 ± 0.44 µM
